Patent publication US20110021570A1, “PYRIDONE GLUCOKINASE ACTIVATORS” (priority 2009, published 2011)

molecular target: T1, Recombinant human liver GK1 (GST-GK) (Homo sapiens, UniProt P35557); assay: Glucokinase in vitro assay (G6PDH-coupled, NADH generation); format: biochemical; settings: concentration of activator that produced a 50% increase in the activity of GK; 5 mM D-glucose, 30° C., pH 7.1
T1 construct: made in house; host or cells: E. coli
T1 sequence (P35557 1-466 isoform P35557-2): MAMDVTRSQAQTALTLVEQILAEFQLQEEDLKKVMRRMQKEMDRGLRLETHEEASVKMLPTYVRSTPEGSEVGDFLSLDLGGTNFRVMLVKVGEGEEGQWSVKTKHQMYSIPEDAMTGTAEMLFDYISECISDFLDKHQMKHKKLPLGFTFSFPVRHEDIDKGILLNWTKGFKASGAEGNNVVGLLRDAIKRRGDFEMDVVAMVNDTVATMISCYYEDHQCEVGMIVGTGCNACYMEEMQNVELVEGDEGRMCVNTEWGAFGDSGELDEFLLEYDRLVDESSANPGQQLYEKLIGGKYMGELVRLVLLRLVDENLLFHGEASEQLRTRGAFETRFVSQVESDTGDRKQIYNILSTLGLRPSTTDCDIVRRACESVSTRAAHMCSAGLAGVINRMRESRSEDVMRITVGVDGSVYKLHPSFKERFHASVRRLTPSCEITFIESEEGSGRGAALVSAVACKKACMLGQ
Description: Glucokinase In Vitro Assay Protocol: Glucokinase (GK) was assayed by coupling the production of glucose-6-phosphate to the generation of NADH with glucose-6-phosphate dehydrogenase (G6PDH, 0.75-1 kunits/mg; Boehringer Mannheim, Indianapolis, Ind.) from Leuconostoc mesenteroides as the coupling enzyme:
Recombinant human liver GK1 was expressed in E. coli as a glutathione S-transferase fusion protein (GST-GK) [Liang et al, 1995] and was purified by chromatography over a glutathione-Sepharose 4B affinity column using the procedure provided by the manufacturer (Amersham Pharmacia Biotech, Piscataway, N.J.).
The assay was conducted at 30° C. in a flat bottom 96-well tissue culture plate from Costar (Cambridge, Mass.) with a final incubation volume of 120 μL. The incubation reaction contained the following: 25 mM Hepes buffer (pH 7.1), 25 mM KCl, 5 mM D-glucose, 1 mM ATP, 1.8 mM NAD, 2 mM MgCl2, 1 μM sorbitol-6-phosphate, 1 mM dithiothreitol, test drug or 10% DMSO, ˜7 units/ml G6PDH, and GK (see below). All organic reagents were >98% pure and were from Boehringer Mannheim with the exceptions of D-glucose and Hepes which were from Sigma Chemical Co, St Louis, Mo. Test compounds were dissolved in DMSO and were added to the incubation reaction minus GST-GK in a volume of 12 μL to yield a final DMSO concentration of 10%. This mix was pre-incubated in the temperature controlled chamber of a SPECTRAmax 250 microplate spectrophotometer (Molecular Devices Corporation, Sunnyvale, Calif.) for 10 minutes to allow temperature equilibrium and then the reaction was started by the addition of […].
After addition of enzyme, the increase in optical density (OD) at 340 nm was monitored spectrophotometrically to determine the rate of change (OD340 per min). The GK activity (0D340/min) in control wells (10% DMSO minus GK activators) was compared with the activity in wells containing test GK activators, and the concentration of activator that produced a 50% increase in the activity of GK, i.e., the SC1.5, was calculated. The table below provides the in vitro glucokinase activity for the compounds in the Examples: […]

Point of comparison: `CC(C)CC(C(=O)Nc1ccn(C)n1)n1ccc(Oc2ccccc2F)cc1=O` (stereo not drawn) [Example 17, 2-[4-(2-Fluoro-phenoxy)-2-oxo-2H-pyridin-1-yl]-4-methyl-pentanoic acid (1-methyl-1H-pyrazol-3-yl)-amide], SC1.5 average 8.4 µM. Against it:
- CC(C)CC(C(=O)Nc1ccn(C)n1)n1ccc(Oc2cccc(F)c2F)cc1=O (stereo not drawn) [Example 1, 2-[4-(2,3-Difluoro-phenoxy)-2-oxo-2H-pyridin-1-yl]-4-methyl-pentanoic acid (1-methyl-1H-pyrazol-3-yl)-amide] — within 1.5-fold, 10.4 µM
- CC(C)CC(C(=O)Nc1ccn(C)n1)n1ccc(Oc2ccccc2)cc1=O (stereo not drawn) [Example 3, 4-Methyl-2-(2-oxo-4-phenoxy-2H-pyridin-1-yl)-pentanoic acid (1-methyl-1H-pyrazol-3-yl)-amide] — 2.6-fold higher, 21.7 µM
- Cc1ccccc1Oc1ccn(C(CC(C)C)C(=O)Nc2ccn(C)n2)c(=O)c1 (stereo not drawn) [Example 4, 4-Methyl-2-(2-oxo-4-o-tolyloxy-2H-pyridin-1-yl)-pentanoic acid (1-methyl-1H-pyrazol-3-yl)-amide] — within 1.5-fold, 7.3 µM
- CC(C)CC(C(=O)Nc1ccn(C)n1)n1ccc(Oc2c(F)cccc2F)cc1=O (stereo not drawn) [Example 5, 2-[4-(2,6-Difluoro-phenoxy)-2-oxo-2H-pyridin-1-yl]-4-methyl-pentanoic acid (1-methyl-1H-pyrazol-3-yl)-amide] — 2-fold lower, 4.2 µM
- CC(C)CC(C(=O)Nc1ccn(C)n1)n1ccc(Oc2ccccc2C(F)(F)F)cc1=O (stereo not drawn) [Example 6, 4-Methyl-2-[2-oxo-4-(2-trifluoromethyl-phenoxy)-2H-pyridin-1-yl]-pentanoic acid (1-methyl-1H-pyrazol-3-yl)-amide] — within 1.5-fold, 11.4 µM
- CC(C)CC(C(=O)Nc1ccn(C)n1)n1ccc(Oc2cccnc2)cc1=O (stereo not drawn) [Example 8, 4-Methyl-2-[2-oxo-4-(pyridin-3-yloxy)-2H-pyridin-1-yl]-pentanoic acid (1-methyl-1H-pyrazol-3-yl)-amide] — 3.1-fold higher, 26.1 µM
- CC(C)CC(C(=O)Nc1ccn(C)n1)n1ccc(Oc2ccccc2C(C)C)cc1=O (stereo not drawn) [Example 10, 2-[4-(2-Isopropyl-phenoxy)-2-oxo-2H-pyridin-1-yl]-4-methyl-pentanoic acid (1-methyl-1H-pyrazol-3-yl)-amide] — 1.9-fold lower, 4.5 µM
- CC(C)CC(C(=O)Nc1ccn(C)n1)n1ccc(Oc2ccc(F)cc2F)cc1=O (stereo not drawn) [Example 11, 2-[4-(2,4-Difluoro-phenoxy)-2-oxo-2H-pyridin-1-yl]-4-methyl-pentanoic acid (1-methyl-1H-pyrazol-3-yl)-amide] — 2.7-fold higher, 22.5 µM
- Cc1c(Cl)cccc1Oc1ccn(C(CC(C)C)C(=O)Nc2ccn(C)n2)c(=O)c1 (stereo not drawn) [Example 12, 2-[4-(3-Chloro-2-methyl-phenoxy)-2-oxo-2H-pyridin-1-yl]-4-methyl-pentanoic acid (1-methyl-1H-pyrazol-3-yl)-amide] — within 1.5-fold, 9.0 µM
- CC(C)CC(C(=O)Nc1ccn(C)n1)n1ccc(Oc2cc(F)ccc2F)cc1=O (stereo not drawn) [Example 13, 2-[4-(2,5-Difluoro-phenoxy)-2-oxo-2H-pyridin-1-yl]-4-methyl-pentanoic acid (1-methyl-1H-pyrazol-3-yl)-amide] — 2-fold higher, 16.6 µM
- CC(C)CC(C(=O)Nc1ccn(C)n1)n1ccc(Oc2cccc3ccccc23)cc1=O (stereo not drawn) [Example 14, 4-Methyl-2-[4-(naphthalen-1-yloxy)-2-oxo-2H-pyridin-1-yl]-pentanoic acid (1-methyl-1H-pyrazol-3-yl)-amide] — 3.2-fold lower, 2.6 µM
- CC(C)CC(C(=O)Nc1ccn(C)n1)n1ccc(Oc2ccccc2Cl)cc1=O (stereo not drawn) [Example 15, 2-[4-(2-Chloro-phenoxy)-2-oxo-2H-pyridin-1-yl]-4-methyl-pentanoic acid (1-methyl-1H-pyrazol-3-yl)-amide] — within 1.5-fold, 6.2 µM
- CC(C)CC(C(=O)Nc1ccn(C)n1)n1ccc(Oc2ccccc2OC(F)(F)F)cc1=O (stereo not drawn) [Example 16, 4-Methyl-2-[2-oxo-4-(2-trifluoromethoxy-phenoxy)-2H-pyridin-1-yl]pentanoic acid (1-methyl-1H-pyrazol-3-yl)-amide] — within 1.5-fold, 8.8 µM
- COc1ccccc1Oc1ccn(C(CC(C)C)C(=O)Nc2ccn(C)n2)c(=O)c1 (stereo not drawn) [Example 18, 2-[4-(2-Methoxy-phenoxy)-2-oxo-2H-pyridin-1-yl]-4-methyl-pentanoic acid (1-methyl-1H-pyrazol-3-yl)-amide] — within 1.5-fold, 8.1 µM

`CC(C)CC(C(=O)Nc1ccn(C)n1)n1ccc(Oc2cccc(F)c2)cc1=O` (stereo not drawn) [Example 2, 2-[4-(3-Fluoro-phenoxy)-2-oxo-2H-pyridin-1-yl]-4-methyl-pentanoic acid (1-methyl-1H-pyrazol-3-yl)-amide] gave an SC1.5 average greater than 30 µM.
In the case of `CC(C)CC(C(=O)Nc1ccn(C)n1)n1ccc(Oc2ccc(F)cc2)cc1=O` (stereo not drawn) [Example 7, 2-[4-(4-Fluoro-phenoxy)-2-oxo-2H-pyridin-1-yl]-4-methyl-pentanoic acid (1-methyl-1H-pyrazol-3-yl)-amide], the SC1.5 average is reported as greater than 30 µM.
With `CC(C)CC(C(=O)Nc1ccn(C)n1)n1ccc(Oc2ccccc2-c2ccccc2)cc1=O` (stereo not drawn) [Example 9, 2-[4-(Biphenyl-2-yloxy)-2-oxo-2H-pyridin-1-yl]-4-methyl-pentanoic acid (1-methyl-1H-pyrazol-3-yl)-amide] the SC1.5 average was greater than 30 µM.
